Several values for one entry are separate records, joined by “and”; a condition that tells them apart may be missing. Equal entries are not always repeated. Where two headings read alike, the source gives them in different places.
Experiments:
[1] = Cell viability assay (CellTiter Glo) in NCI-H1568; assay type: cell-based, human; settings: human, NCI-H1568 cells, NCI-H1568; log10 conc -5.90309 mol/l;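 further: percent of DMSO-treated control cells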
Method in brief: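 This proliferation assay used human NCI-H1568 cells seeded at 500–2000 cells per well into 96-well white, clear-bottom plates containing 180–200 µl medium. Compounds were dispensed digitally the following day alongside a T0 reference measurement. Cells and CellTiter Glo reagent were brought to room temperature, incubated 10–20 min with shaking, and luminescence was read.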

[2] = Cell viability assay (CellTiter Glo) in a panel of cell lines; assay type: cell-based, human; settings: for EC50: Homo sapiens; for viability at 1 µM / viability at 0.316 µM / viability at 1.25 µM / viability at 0.313 µM / viability at 0.1 µM: human; for viability at 1 µM: log10 conc -6 mol/l; for viability at 0.316 µM: log10 conc -6.50031 mol/l; for viability at 1.25 µM: log10 conc -5.90309 mol/l; for viability at 0.313 µM: log10 conc -6.50446 mol/l; for viability at 0.1 µM: log10 conc -7 mol/l
Description: 500–2000 cells were seeded in white, clear bottom 96-well plates (Corning or Perkin Elmer) in 180–200 µl medium per well. The next day, compounds were added using a digital dispenser and a T0 sample was measured for reference. Cells were incubated for 144–192 h, and viability (luminescence) was measured using CellTiter Glo or CellTiter Glo 2.0 (Promega) according to manufacturer’s instructions after equilibrating cells and reagents at room temperature and 10–20 min incubation time while shaking.

A549 tumour xenograft = experiment: A549 xenograft tumour growth; assay type: in vivo, mouse; settings: for Tumor volume: Fig4g, 80 mg/kg, qd, per animal
Description: To establish subcutaneous tumours, mice were injected with 5 × 10^6 NCI-H1568 in PBS with 5% FCS or with 1 × 10^7 A549 cells in PBS with 5% FCS. Tumour diameters were measured with a caliper three times a week. The volume of each tumour (in mm^3) was calculated according to the formula [tumour volume = length × diameter^2 × π/6]. To monitor side effects of treatment, mice were inspected daily for abnormalities and body weight was determined daily after the start of treatment. Animals were sacrificed when the tumours reached a size of 1500 mm^3. Mice were randomised into treatment groups when the average tumour size reached ~210–220 mm^3. Group sizes were calculated individually for each tumour model based on tumour growth during model establishment experiments. A power analysis was performed using a sample size calculator (https://www.stat.ubc.ca/~rollin/stats/ssize/n2.html). For both models used in the study, 10 mice per group were used for each experiment. All administrations were dosed with 10 ml/kg (s.c. and oral). Control mice were dosed subcutaneously with 10% HP-β-CD in 50% Ringer solution and orally with 15% HP-β-CD, that means the control mouse treatment was corresponding to the solvent of the compounds. Compound 6 was dosed subcutaneously either in a d1-4 q3d, d6-8 q2d, d11-13 q2d treatment (Treatment 1) or a q3 or 4d treatment (Treatment 2).
For the evaluation of the statistical significance of tumour growth inhibition, a one-tailed nonparametric Mann-Whitney-Wilcoxon U-test was performed, based on the hypothesis that an effect would only be measurable in one direction (i.e. expectation of tumour inhibition but not tumour stimulation). Analysis was performed on the day indicated for each experiment. The p values obtained from the U-test were adjusted using the Bonferroni-Holm correction. By convention, p values ≤0.05 indicate significance of differences.

Cc1ncsc1-c1ccc(C(CCC(C)CCN2CCC(c3ccc4c(c3)n(C3CCCC3)c3nc(=O)c5c(Br)cccc5n43)CC2)NC(=O)C2CC(O)CN2C(=O)C(NC(=O)C2(F)CC2)C(C)(C)C)cc1 (stereo not shown) [ACBI2]
viability at 1.25 µM [1]: 0.898% | EC50 ([2]; A549, A549, read-out: LogEC50 (viability) (converted)): 29.3 nM | EC50 ([2]; A549, A549, values derived from curves in Extended Fig 4b, read-out: EC50 mean): 29.3 nM | EC50 ([2]; HCC364, HCC-364, read-out: LogEC50 (viability) (converted)): 70.8 nM | EC50 ([2]; HCC364, HCC-364, values derived from curves in Extended Fig 4b, read-out: EC50 mean): 70.8 nM | EC50 ([2]; HCC515, HCC-515, read-out: LogEC50 (viability) (converted)): 2.11 nM | EC50 ([2]; HCC515, HCC-515, values derived from curves in Extended Fig 4b, read-out: EC50 mean): 2.11 nM | EC50 ([2]; HCC4006, HCC4006, read-out: LogEC50 (viability) (converted)): 191 nM | EC50 ([2]; HCC4006, HCC4006, values derived from curves in Extended Fig 4b, read-out: EC50 mean): 191 nM | EC50 ([2]; LXFA 629L, LXFA_629L, read-out: LogEC50 (viability) (converted)): 16.5 nM | EC50 ([2]; LXFA 629L, LXFA_629L, values derived from curves in Extended Fig 4b, read-out: EC50 mean): 16.5 nM | EC50 ([2]; LXFA_923L, read-out: LogEC50 (viability) (converted)): 4.36 nM | EC50 ([2]; LXFA_923L, values derived from curves in Extended Fig 4b, read-out: EC50 mean): 4.35 nM | EC50 ([2]; LXFL 529L, LXFL_529L, read-out: LogEC50 (viability) (converted)): 0.382 nM | EC50 ([2]; LXFL 529L, LXFL_529L, values derived from curves in Extended Fig 4b, read-out: EC50 mean): 0.382 nM | EC50 ([2]; Lu-99, LU99, read-out: LogEC50 (viability) (converted)): 132 nM | EC50 ([2]; Lu-99, LU99, values derived from curves in Extended Fig 4b, read-out: EC50 mean): 132 nM | EC50 ([2]; MP38, read-out: LogEC50 (viability) (converted)): 8.75 nM | EC50 ([2]; MP38, values derived from curves in Extended Fig 4b, read-out: EC50 mean): 8.75 nM | EC50 ([2]; NCI-H1355, NCI-H1355, read-out: LogEC50 (viability) (converted)): 15.6 nM | EC50 ([2]; NCI-H1355, NCI-H1355, values derived from curves in Extended Fig 4b, read-out: EC50 mean): 15.6 nM | EC50 ([2]; OV-90, OV-90, read-out: LogEC50 (viability) (converted)): 67.5 nM | EC50 ([2]; OV-90, OV-90, values derived from curves in Extended Fig 4b, read-out: EC50 mean): 67.5 nM | EC50 ([2]; SK-MEL-5, SK-MEL-5, read-out: LogEC50 (viability) (converted)): 2.82 nM | EC50 ([2]; SK-MEL-5, SK-MEL-5, values derived from curves in Extended Fig 4b, read-out: EC50 mean): 2.82 nM | viability at 1 µM ([2]; A549 cells, A549): 44% | viability at 0.316 µM ([2]; A549 cells, A549): 43.1% | viability at 1.25 µM ([2]; HCC4006 cells, HCC4006): 42.2% | viability at 0.313 µM ([2]; HCC4006 cells, HCC4006): 53.4% | viability at 1.25 µM ([2]; HCC-364 cells, HCC-364): 14.6% | viability at 0.313 µM ([2]; HCC-364 cells, HCC-364): 20.4% | viability at 1 µM ([2]; HCC-515 cells, HCC-515): 15% | viability at 0.316 µM ([2]; HCC-515 cells, HCC-515): 22.4% | viability at 1.25 µM ([2]; KYSE-30 cells, KYSE-30): 91.1% | viability at 0.313 µM ([2]; KYSE-30 cells, KYSE-30): 92.8% | viability at 0.313 µM ([2]; LU99 cells, LU99): 30.1% | viability at 1 µM ([2]; LXFA 629L cells, LXFA_629L): 14.9% | viability at 0.316 µM ([2]; LXFA 629L cells, LXFA_629L): 24.7% | viability at 1 µM ([2]; LXFA 923L cells, LXFA_923L): 13.6% | viability at 0.316 µM ([2]; LXFA 923L cells, LXFA_923L): 21.4% | viability at 1 µM ([2]; LXFL 529L cells, LXFL_529L): 4.39% | viability at 0.316 µM ([2]; LXFL 529L cells, LXFL_529L): 6.27% | viability at 0.1 µM ([2]; LXFL 529L cells, LXFL_529L): 9.52% | viability at 1 µM ([2]; LXFL 1121L cells, LXFL_1121L): 90.4% | viability at 0.316 µM ([2]; LXFL 1121L cells, LXFL_1121L): 92.1% | viability at 0.1 µM ([2]; LXFL 1121L cells, LXFL_1121L): 89.5% | viability at 1 µM ([2]; MP38 cells, MP38): 1.87% | viability at 0.316 µM ([2]; MP38 cells, MP38): 0.609% | viability at 0.1 µM ([2]; MP38 cells, MP38): 1.6% | viability at 1.25 µM ([2]; NCI-H23 cells, NCI-H23): 75.3% | viability at 0.313 µM ([2]; NCI-H23 cells, NCI-H23): 76.1% | viability at 1.25 µM ([2]; OV-90 cells, OV-90): 35.5% | viability at 0.313 µM ([2]; OV-90 cells, OV-90): 45.5% | viability at 1.25 µM ([2]; SK-MEL-5 cells, SK-MEL-5): 1.81% | viability at 0.313 µM ([2]; SK-MEL-5 cells, SK-MEL-5): 2.34% | viability at 1.25 µM ([2]; TOV-112D cells, TOV-112D): 91.7% | viability at 0.313 µM ([2]; TOV-112D cells, TOV-112D): 103% | TGI (A549 tumour xenograft; A549 xenograft, 80 mg/kg p.o. once daily, day 21): 47% | Tumor volume (A549 tumour xenograft; day 1): 123.81 mm3 and 132.68 mm3 and 160.75 mm3 and 185.14 mm3 and 199.53 mm3 and 221.26 mm3 and 231.03 mm3 and 289.04 mm3 and 318.82 mm3 and 328.35 mm3 | Tumor volume (A549 tumour xenograft; day 4): 227.06 mm3 and 262.12 mm3 and 188.92 mm3 and 409.05 mm3 and 274.16 mm3 and 314.25 mm3 and 306.21 mm3 and 369.92 mm3 and 481.58 mm3 and 366.82 mm3 | Tumor volume (A549 tumour xenograft; day 7): 231.98 mm3 and 243.18 mm3 and 196.23 mm3 and 274.16 mm3 and 253.11 mm3 and 344.34 mm3 and 317.61 mm3 and 448.55 mm3 and 592.88 mm3 and 312.54 mm3 | Tumor volume (A549 tumour xenograft; day 9): 261.94 mm3 and 301.83 mm3 and 219.73 mm3 and 302.82 mm3 and 326.12 mm3 and 416.63 mm3 and 335.28 mm3 and 487.15 mm3 and 592.89 mm3 and 371.89 mm3 | Tumor volume (A549 tumour xenograft; day 11): 258.58 mm3 and 202.63 mm3 and 223.15 mm3 and 242.18 mm3 and 278.14 mm3 and 355.98 mm3 and 334.2 mm3 and 464.77 mm3 and 688.26 mm3 and 480.94 mm3 | Tumor volume (A549 tumour xenograft; day 16): 301.85 mm3 and 268.43 mm3 and 297.84 mm3 and 244.81 mm3 and 221.75 mm3 and 393.39 mm3 and 329.71 mm3 and 573.4 mm3 and 713.65 mm3 and 552.3 mm3 | Tumor volume (A549 tumour xenograft; day 18): 316.56 mm3 and 265.75 mm3 and 265.54 mm3 and 297.93 mm3 and 440.11 mm3 and 297.45 mm3 and 522.76 mm3 and 814.33 mm3 and 590.82 mm3 | Tumor volume (A549 tumour xenograft; day 21): 331.26 mm3 and 257.14 mm3 and 246.03 mm3 and 472.38 mm3 and 341.87 mm3 and 428.61 mm3 and 821.5 mm3 and 487.26 mm3 | Tumor volume (A549 tumour xenograft; day 23): 322.32 mm3 and 225.79 mm3 and 259.68 mm3 and 527.19 mm3 and 270.43 mm3 and 777.27 mm3 and 455.64 mm3

Reference: paper PMC9551036, “A selective and orally bioavailable VHL-recruiting PROTAC achieves SMARCA2 degradation in vivo” (Nature Communications, 2022)
